These results are taken from the SangsterLogP compilation.

The nature of this data set: method code SF-AS, from DOI: 10.1002/jps.2600771105, PMID: 3225751. Conditions: pH 1.0.
`CCCCC1(CCCC)C(=O)NC(=O)NC1=O` displayed a pH-dependent lipophilicity (logD) of 2.7.
Molecule `CCC1(C(C)(C)C)C(=O)NC(=O)NC1=O` had a logD of 1.38.
Next, `CC(C)(C)C1(Cl)C(=O)NC(=O)NC1=O`: 0.82.
Next, `CC(C)C1C(=O)NC(=O)NC1=O`: -0.02.
`CCC1(CC)C(=O)NC(=S)NC1=O` had a logD of 1.5.
The same measure for `CC(C)C1(C(C)C)C(=O)NC(=O)NC1=O`: 1.56.
Take `CC1(C)C(=O)NC(=S)NC1=O`: the logD turned out to be 0.5.
Next, `CC(C)(C)C1(C)C(=O)NC(=O)NC1=O`: 0.8; `CC(C)C1(C)C(=O)NC(=O)NC1=O`: 0.54.
The molecule `CC(C)(C)C1C(=O)NC(=O)NC1=O` displayed a logD of 0.28.
Turning to `C=CCC1(C(C)(C)C)C(=O)NC(=O)NC1=O`, the logD was 1.64.
In turn, `CCCC1(CCC)C(=O)NC(=O)NC1=O` showed a pH-dependent lipophilicity (logD) of 1.75.
In turn, `CCCCC1(CC)C(=O)NC(=O)NC1=O` yielded a logD of 1.73.
`CCCC1(CCC)C(=O)NC(=S)NC1=O` displayed a logD of 2.66.

Usually logD stands for lipophilicity at a set pH, counting ionised and neutral species.
